Laboratory results: ChEMBL document CHEMBL1155839, “Exploring 9-benzyl purines as inhibitors of glutamate racemase (MurI) in Gram-positive bacteria” (Bioorg Med Chem Lett, 2008)
Converted amounts (≈) assume the structure as drawn.

Columns and labels:
[1] = Inhibition of Staphylococcus aureus MurI
[2] = system: Enterococcus faecalis; assay: Antibacterial activity against Enterococcus faecalis; type: functional
[3] = Solubility by nephelometry; type: physicochemical
[4] = target: T1, Glutamate racemase (Enterococcus faecalis (strain ATCC 700802 / V583), UniProt Q836J0); assay: Inhibition of Enterococcus faecalis MurI
T1 sequence (Q836J0 whole entry): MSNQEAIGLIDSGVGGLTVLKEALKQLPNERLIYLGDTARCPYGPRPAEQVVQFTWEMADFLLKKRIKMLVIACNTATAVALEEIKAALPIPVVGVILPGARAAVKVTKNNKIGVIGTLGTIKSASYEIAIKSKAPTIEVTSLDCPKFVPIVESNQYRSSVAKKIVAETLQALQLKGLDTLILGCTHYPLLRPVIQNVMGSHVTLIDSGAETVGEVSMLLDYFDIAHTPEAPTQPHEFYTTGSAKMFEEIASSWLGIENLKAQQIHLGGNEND

[5] = Inhibition of Enterococcus faecium MurI
[6] = system: Staphylococcus aureus; assay: Antibacterial activity against Staphylococcus aureus; type: functional
[7] = system: Enterococcus faecium; assay: Antibacterial activity against Enterococcus faecium; type: functional

Structure (SMILES)	IC50 [1]	MIC [2]	solubility kinetic [3]	IC50 [4]	IC50 [5]	MIC [6]	MIC [7]
CCCCSc1nc(N)c2ncn(Cc3c(F)ccc(C)c3F)c2n1	> 400 µM	16 µg/mL (≈ 44 µM)	25 µM (≈ 9.09 µg/mL)	5.4 µM	6.5 µM	16 µg/mL (≈ 44 µM)	16 µg/mL (≈ 44 µM)
CCCCOc1nc(NCc2ccccc2)c2ncn(Cc3c(F)ccc(C)c3F)c2n1	> 400 µM	16 µg/mL (≈ 36.6 µM)	3.1 µM (≈ 1.36 µg/mL)	> 400 µM	> 400 µM	16 µg/mL (≈ 36.6 µM)	16 µg/mL (≈ 36.6 µM)
CCCCSc1nc(N)c2ncn(Cc3cccc([N+](=O)[O-])c3)c2n1	> 400 µM	16 µg/mL (≈ 44.6 µM)	42 µM (≈ 15.1 µg/mL)	9.4 µM	17.7 µM	16 µg/mL (≈ 44.6 µM)	16 µg/mL (≈ 44.6 µM)
CCCCOc1nc(NCCN2CCOCC2)c2ncn(Cc3c(F)cccc3F)c2n1	> 400 µM	16 µg/mL (≈ 35.8 µM)	200 µM (≈ 89.3 µg/mL)		5.5 µM	16 µg/mL (≈ 35.8 µM)	16 µg/mL (≈ 35.8 µM)
CCCCOc1nc(NCc2cccnc2)c2ncn(Cc3c(F)ccc(Cl)c3F)c2n1	> 400 µM	16 µg/mL (≈ 34.9 µM)	18 µM (≈ 8.26 µg/mL)	2 µM	2.7 µM	16 µg/mL (≈ 34.9 µM)	16 µg/mL (≈ 34.9 µM)
CCCCSc1nc(N)c2ncn(Cc3c(F)ccc(Cl)c3F)c2n1	> 400 µM	16 µg/mL (≈ 41.7 µM)	25 µM (≈ 9.6 µg/mL)	2.2 µM	2.6 µM	16 µg/mL (≈ 41.7 µM)	16 µg/mL (≈ 41.7 µM)
CCCCSc1nc(N)c2nnn(Cc3c(F)cccc3F)c2n1	> 400 µM	16 µg/mL (≈ 45.7 µM)	50 µM (≈ 17.5 µg/mL)	4.3 µM	6.2 µM	16 µg/mL (≈ 45.7 µM)	16 µg/mL (≈ 45.7 µM)

More lines, now with the values ahead:

IC50 [1]	MIC [2]	solubility kinetic [3]	IC50 [4]	IC50 [5]	MIC [6]	MIC [7]	Structure (SMILES)
> 400 µM	16 µg/mL (≈ 41.2 µM)	25 µM (≈ 9.71 µg/mL)	1.4 µM	2.5 µM	16 µg/mL (≈ 41.2 µM)	16 µg/mL (≈ 41.2 µM)	CCCCSc1nc(N)c2ncn(Cc3cc([N+](=O)[O-])ccc3OC)c2n1
> 400 µM	16 µg/mL (≈ 46.1 µM)	100 µM (≈ 34.7 µg/mL)	5.5 µM	13.9 µM	16 µg/mL (≈ 46.1 µM)	16 µg/mL (≈ 46.1 µM)	CCCCOc1nc(NC)c2ncn(Cc3c(F)cccc3F)c2n1
> 400 µM	16 µg/mL (≈ 43.4 µM)	50 µM (≈ 18.4 µg/mL)	1 µM	1.8 µM	16 µg/mL (≈ 43.4 µM)	16 µg/mL (≈ 43.4 µM)	CCCCSc1ncc2ncn(Cc3c(F)ccc(Cl)c3F)c2n1
> 400 µM	16 µg/mL (≈ 48.1 µM)	100 µM (≈ 33.2 µg/mL)	26.1 µM	42.5 µM	16 µg/mL (≈ 48.1 µM)	16 µg/mL (≈ 48.1 µM)	CCCCNc1nc(N)c2ncn(Cc3c(F)cccc3F)c2n1
> 400 µM	16 µg/mL (≈ 46.1 µM)	50 µM (≈ 17.4 µg/mL)	9.8 µM	27 µM	16 µg/mL (≈ 46.1 µM)	16 µg/mL (≈ 46.1 µM)	CCCCOc1nc(N)c2ncn(Cc3c(F)ccc(C)c3F)c2n1
> 400 µM	16 µg/mL (≈ 35.4 µM)	25 µM (≈ 11.3 µg/mL)	4.3 µM	4.4 µM	16 µg/mL (≈ 35.4 µM)	16 µg/mL (≈ 35.4 µM)	CCC(Oc1nc(N)c2ncn(Cc3c(F)ccc(C)c3F)c2n1)C(F)(F)C(F)(F)F (stereo not drawn)
> 400 µM	16 µg/mL (≈ 42.5 µM)	100 µM (≈ 37.6 µg/mL)	167 µM	> 400 µM	16 µg/mL (≈ 42.5 µM)	16 µg/mL (≈ 42.5 µM)	CC(=O)NC(C)Oc1nc(N)c2ncn(Cc3c(F)ccc(C)c3F)c2n1 (stereo not drawn)
> 400 µM	16 µg/mL (≈ 43.9 µM)	100 µM (≈ 36.4 µg/mL)	11.5 µM	3.75 µM	16 µg/mL (≈ 43.9 µM)	16 µg/mL (≈ 43.9 µM)	CCCCSc1nc2c(ncn2Cc2c(F)ccc(C)c2F)c(=O)[nH]1
> 400 µM	16 µg/mL (≈ 45.8 µM)	200 µM (≈ 69.9 µg/mL)	38.1 µM	97.8 µM	16 µg/mL (≈ 45.8 µM)	16 µg/mL (≈ 45.8 µM)	CCCCOc1nc(N)c2[nH]c(=O)n(Cc3c(F)cccc3F)c2n1
> 400 µM	16 µg/mL (≈ 45.8 µM)	50 µM (≈ 17.5 µg/mL)	4.1 µM	6 µM	16 µg/mL (≈ 45.8 µM)	16 µg/mL (≈ 45.8 µM)	CCCCSc1nc(N)c2ncn(Cc3c(F)cccc3F)c2n1
